In ChEMBL document CHEMBL3112450, “Synthesis and in vitro antitumor evaluation of primary amine substituted quinazoline linked benzimidazole” (Bioorg Med Chem Lett, 2014):

Columns and labels:
[1] = test system: CCRF-CEM; assay: Cytotoxicity against human CCRF-CEM cells assessed as growth inhibition at 10 uM after 48 hrs by SRB assay; assay type: functional; conditions: read-out: GI
[2] = test system: HT-29; assay: Cytotoxicity against human HT-29 cells assessed as growth inhibition at 10 uM after 48 hrs by SRB assay; assay type: functional; conditions: HT-29, 48 h, read-out: GI
[3] = test system: HCT-116; assay: Cytotoxicity against human HCT116 cells assessed as growth inhibition at 10 uM after 48 hrs by SRB assay; assay type: functional; conditions: HCT-116, 48 h, read-out: GI
[4] = Cytotoxicity against human UO31 cells assessed as growth inhibition at 10 uM after 48 hrs by SRB assay; assay type: functional; conditions: UO-31, 48 h, read-out: GI
[5] = test system: PC-3; assay: Cytotoxicity against human PC3 cells assessed as growth inhibition at 10 uM after 48 hrs by SRB assay; assay type: functional; conditions: PC-3, 48 h, read-out: GI
[6] = Cytotoxicity against human OVCAR4 cells assessed as growth inhibition at 10 uM after 48 hrs by SRB assay; assay type: functional; conditions: OVCAR-4, 48 h, read-out: GI
[7] = test system: COLO 205; assay: Cytotoxicity against human COLO205 cells assessed as growth inhibition at 10 uM after 48 hrs by SRB assay; assay type: functional; conditions: COLO 205, 48 h, read-out: GI
[8] = test system: SK-MEL-5; assay: Cytotoxicity against human SK-MEL-5 cells assessed as growth inhibition at 10 uM after 48 hrs by SRB assay; assay type: functional; conditions: SK-MEL-5, 48 h, read-out: GI
[9] = test system: K562; assay: Cytotoxicity against human K562 cells assessed as growth inhibition at 10 uM after 48 hrs by SRB assay; assay type: functional; conditions: K562, 48 h, read-out: GI
[10] = test system: SR; assay: Cytotoxicity against human SR cells assessed as growth inhibition at 10 uM after 48 hrs by SRB assay; assay type: functional; conditions: read-out: GI
[11] = test system: SW-620; assay: Cytotoxicity against human SW620 cells assessed as growth inhibition at 10 uM after 48 hrs by SRB assay; assay type: functional; conditions: SW-620, 48 h, read-out: GI
[12] = test system: MCF7; assay: Cytotoxicity against human MCF7 cells assessed as growth inhibition at 10 uM after 48 hrs by SRB assay; assay type: functional; conditions: MCF7, 48 h, read-out: GI
[13] = test system: MDA-MB-468; assay: Cytotoxicity against human MDA-MB-468 cells assessed as growth inhibition at 10 uM after 48 hrs by SRB assay; assay type: functional; conditions: MDA-MB-468, 48 h, read-out: GI
[14] = test system: KM12; assay: Cytotoxicity against human KM12 cells assessed as growth inhibition at 10 uM after 48 hrs by SRB assay; assay type: functional; conditions: KM12, 48 h, read-out: GI
[15] = test system: SNB-75; assay: Cytotoxicity against human SNB75 cells after 48 hrs by SRB assay; assay type: functional, cell-based; conditions: SNB-75, 48 h
[16] = test system: SNB-75; assay: Cytotoxicity against human SNB75 cells assessed as cell growth at 10^-8 M after 48 hrs by SRB assay; assay type: functional; conditions: SNB-75, 48 h, read-out: Activity
[17] = test system: SNB-75; assay: Cytotoxicity against human SNB75 cells assessed as cell growth at 10^-7 M after 48 hrs by SRB assay; assay type: functional; conditions: SNB-75, 48 h, read-out: Activity
[18] = test system: SNB-75; assay: Cytotoxicity against human SNB75 cells assessed as cell growth at 10^-4 M after 48 hrs by SRB assay; assay type: functional; conditions: SNB-75, 48 h, read-out: Activity
[19] = test system: SNB-75; assay: Cytotoxicity against human SNB75 cells assessed as cell growth at 10^-6 M after 48 hrs by SRB assay; assay type: functional; conditions: SNB-75, 48 h, read-out: Activity

SMILES: C=CCn1c(C)nc2ccc(Nc3nc(Sc4ccc(N)cc4)nc4ccccc34)cc21
- inhibition of growth at 10 µM [1]: 30%

SMILES: C=CCn1c(C)nc2cc(Nc3nc(NCCO)nc4ccccc34)ccc21
- inhibition of growth at 10 µM [2]: 30%
- inhibition of growth at 10 µM [3]: 30%
- inhibition of growth at 10 µM [4]: 30%
- inhibition of growth at 10 µM [5]: 30%
- inhibition of growth at 10 µM [6]: 30%
- inhibition of growth at 10 µM [7]: 50%
- inhibition of growth at 10 µM [8]: 30%
- inhibition of growth at 10 µM [9]: 30%
- inhibition of growth at 10 µM [10]: 30%
- inhibition of growth at 10 µM [11]: 30%
- inhibition of growth at 10 µM [12]: 30%
- inhibition of growth at 10 µM [13]: 40%
- inhibition of growth at 10 µM [14]: 30%

SMILES: C=CCn1c(C)nc2cc(Nc3nc(Nc4ccc5nc(C)n(CC=C)c5c4)c4ccccc4n3)ccc21
- GI50 [15]: 0.375 µM
- LC50 (concentration killing 50% of cells) [15]: 5.31 µM
- TGI [15]: 1.56 µM
- growth at 0.01 µM [16]: 84%
- growth at 0.1 µM [17]: 93%
- growth at 100 µM [18]: -61%
- growth at 1 µM [19]: 18%
